Reference: ChEMBL document CHEMBL2016438, “Design and synthesis of naphthoquinone derivatives as antiproliferative agents and 20S proteasome inhibitors” (Bioorg Med Chem Lett, 2012)
The source made the active and inactive calls. The rule behind the calls is not given here.

Legend:
HeLa-GFP = experiment: Inhibition of proteasome in human HeLa-GFP cells at 10 ug/ml
KB [1] = experiment: Antiproliferative activity against human KB cells; assay type: functional, cell-based
[2] = Antiproliferative activity against human KBVIN cells; assay type: functional, cell-based
A549 [3] = experiment: Antiproliferative activity against human A549 cells; assay type: functional, cell-based
DU-145 [4] = experiment: Antiproliferative activity against human DU145 cells; assay type: functional, cell-based
KB [5] = experiment: Antiproliferative activity against human KB cells at 10 ug/ml; assay type: functional, cell-based
A549 [6] = experiment: Antiproliferative activity against human A549 cells at 10 ug/ml; assay type: functional, cell-based
DU-145 [7] = experiment: Antiproliferative activity against human DU145 cells at 10 ug/ml; assay type: functional, cell-based
KBVIN = experiment: Antiproliferative activity against human KBVIN cells at 10 ug/ml; assay type: functional, cell-based
[8] = Inhibition of chymotrypsin-like activity of human 20s proteasome

| SMILES | inhibition (HeLa-GFP) | IC50 (KB [1]) [µM] | IC50 (A549 [3]) [µM] | IC50 (DU-145 [4]) [µM] | IC50 [8] [µM] | IC50 [2] [µM] | inhibition (KB [5]) | inhibition (A549 [6]) | inhibition (DU-145 [7]) | inhibition (KBVIN) |
| --- | --- | --- | --- | --- | --- | --- | --- | --- | --- | --- |
| O=C(Nc1ccccn1)c1ccc(NC2=C(Cl)C(=O)c3ccccc3C2=O)cc1 | – | – | – | – | – | – | inactive | inactive | inactive | inactive |
| O=C1C(Cl)=C(Nc2ccc3c(c2)OCO3)C(=O)c2ccccc21 | – | – | – | – | – | – | inactive | inactive | inactive | inactive |
| O=C1C(Cl)=C(NCCN2CCOCC2)C(=O)c2ccccc21 | – | – | – | – | – | – | inactive | inactive | inactive | inactive |
| O=C(NCCc1ccccc1)c1ccc(NC2=C(Cl)C(=O)c3ccccc3C2=O)cc1 | – | – | – | – | – | – | inactive | inactive | inactive | inactive |
| O=C1C(Cl)=C(NCCc2cccs2)C(=O)c2ccccc21 | – | – | – | – | – | – | inactive | inactive | inactive | inactive |
| COc1ccc(C(=O)Nc2ccc(NC3=C(Cl)C(=O)c4ccccc4C3=O)cc2)cc1 | – | – | – | – | – | – | inactive | inactive | inactive | inactive |
| COc1ccc(CC(=O)Nc2ccc(NC3=C(Cl)C(=O)c4ccccc4C3=O)cc2)cc1 | – | – | – | – | – | – | inactive | inactive | inactive | inactive |
| O=C(Nc1ccc(NC2=C(Cl)C(=O)c3ccccc3C2=O)cc1)c1ccccn1 | – | – | – | – | – | – | inactive | inactive | inactive | inactive |

The next lines start with results.

| inhibition (HeLa-GFP) | IC50 (KB [1]) [µM] | IC50 (A549 [3]) [µM] | IC50 (DU-145 [4]) [µM] | IC50 [8] [µM] | SMILES | IC50 [2] [µM] | inhibition (KB [5]) | inhibition (A549 [6]) | inhibition (DU-145 [7]) | inhibition (KBVIN) |
| --- | --- | --- | --- | --- | --- | --- | --- | --- | --- | --- |
| inactive | 10.4 | 9.64 | 10.5 | – | COc1cc(NC(=O)c2ccc(NC3=C(Cl)C(=O)c4ccccc4C3=O)cc2)cc(OC)c1 | 11.3 | – | – | – | – |
| – | – | – | – | 10.1 | CC(=O)N[C@@H](CSC(=O)[C@]1([C@@H](O)C(C)C)NC(=O)[C@H](C)[C@@H]1O)C(=O)O [LACTACYSTIN] | – | – | – | – | – |
| inactive | 8.12 | 2.9 | 4.55 | – | O=C1C(Cl)=C(Nc2ccc(Oc3ccccc3)cc2)C(=O)c2ccccc21 | 1.3 | – | – | – | – |
| Active | 16.6 | 23.2 | 18.3 | 3.65 | O=C1C(Cl)=C(Nc2ccc([N+](=O)[O-])cc2)C(=O)c2ccccc21 | 18.3 | – | – | – | – |
| inactive | 14 | 12.5 | 13.7 | – | O=C1C(Cl)=C(Nc2ccc(C(=O)N3CCOCC3)cc2)C(=O)c2ccccc21 | 14.5 | – | – | – | – |
| inactive | 12.9 | 18.8 | 15.8 | – | O=C1C(Cl)=C(Nc2ccc(N3CCOCC3)cc2)C(=O)c2ccccc21 | 14.2 | – | – | – | – |
| inactive | 9.57 | 12.2 | 10.8 | 18.6 | O=C1C(Cl)=C(Nc2ccc(S(=O)(=O)Nc3ccccn3)cc2)C(=O)c2ccccc21 | 11.7 | – | – | – | – |
| inactive | 16.2 | 20.4 | 18.1 | – | O=C1C(Cl)=C(NCCCN2CCCC2=O)C(=O)c2ccccc21 | 19.1 | – | – | – | – |
